Converted amounts (≈) assume the structure as drawn.
Tests used:
Experiment in all cases: MIC, broth microdilution
S. aureus GC 6469 = settings: Staphylococcus aureus, GC6469, S. aureus GC 6469
S. pyogenes GC 4563 = settings: Streptococcus pyogenes, GC4563, S. pyogenes GC 4563
S. aureus GC 6467 = settings: Staphylococcus aureus, GC6467, S. aureus GC 6467
Procedure: (§1) Antimicrobial susceptibility testing. The in vitro activities of the antibiotics are determined by the broth microdilution method as recommended by the National Committee for Clinical Laboratory Standards (NCCLS) (1). Mueller-Hinton II broth (MHBII)(BBL Cockeysville, Md.) is the medium employed in the testing procedures. Microtiter plates containing serial dilutions of each antimicrobial agent are inoculated with each organism to yield the appropriate density (10^5 CFU/ml) in a 100 μl final volume. The plates are incubated for 18-22 hours at 35° C. in ambient air.
(§2) Representative compounds were first incubated in mouse serum for an hour prior to the in vitro testing against a panel of selected gram-positive and gram-negative bacteria strains. All compounds were also pre-incubated in water for an hour prior to testing as control.

S. aureus GC 6335 = settings: Staphylococcus aureus, GC6335, S. aureus GC 6335
E. coli GC 3226 = settings: Escherichia coli, GC3226, E. coli GC 3226
E. coli GC 2203 = settings: Escherichia coli, GC2203, E. coli GC 2203
E. coli GC 4559 = settings: Escherichia coli, GC4559, E. coli GC 4559
S. agalactiae GC 4564 = test system: S. agalactiae GC 4564
Procedure: as §1
(§3) Representative compounds were first incubated in mouse serum for an hour prior to the in vitro testing against a panel of selected gram-positive and gram-negative bacteria strains. All compounds were also pre-incubated in water for an hour prior to testing as control. Representative compounds of Formula I were incubated in human serum prior to MIC determination.

E. coli GC 2233 = settings: Escherichia coli, GC2233, E. coli GC 2233
E. coli GC 6465 = settings: Escherichia coli, GC6465, E. coli GC 6465
E. coli GC 1073 = settings: Escherichia coli, GC1073, E. coli GC 1073
S. typhimurium GC 2172 = settings: Salmonella enterica, TYPHIMURIUM, S. typhimurium GC 2172
S. aureus GC 1079 = settings: Staphylococcus aureus, GC1079, S. aureus GC 1079
E. faecium GC 4556 = settings: Enterococcus faecium, GC4556, E. faecium GC 4556
Procedure: as §1, §3

E. coli GC 2270 = settings: Escherichia coli, GC2270, E. coli GC 2270
E. coli GC 4560 = settings: Escherichia coli, GC4560, E. coli GC 4560
E. coli GC 2235 = settings: Escherichia coli, GC2235, E. coli GC 2235
E. coli GC 2271 = settings: Escherichia coli, GC2271, E. coli GC 2271
S. aureus GC 6466 = settings: Staphylococcus aureus, GC6466, S. aureus GC 6466
E. coli GC 2234 = settings: Escherichia coli, GC2234, E. coli GC 2234
Procedure: as §1, §2

[1] = S. agalactiae GC 4564, Water pre-incubation
[2] = Streptococcus agalactiae, GC4564

CCCN(CC(=O)Nc1cc(N(C)C)c2c(c1O)C(=O)C1=C(O)[C@]3(O)C(=O)C(C(N)=O)=C(O)[C@@H](N(C)C)[C@@H]3C[C@@H]1C2)C(=O)OCOC(=O)Cc1ccccc1 [Example 11, ({[(2-{[(5aR,6aS,7S,10aS)-9-(aminocarbonyl)-4,7-bis(dimethylamino)-1,8,10a,11′-tetrahydroxy-10,12-dioxo-5,5a,6,6a,7,10,10a,12-octahydrotetracen-2-yl]amino}-2-oxoethyl)(propyl)amino]carbonyl}oxy)methyl phenylacetate]
MIC (S. aureus GC 6469; Mouse Serum pre-incubation): 4 µg/mL (≈ 5.24 µM)
MIC (S. aureus GC 6469; Water pre-incubation): 4 µg/mL (≈ 5.24 µM)
MIC (S. pyogenes GC 4563; Mouse Serum pre-incubation): < 0.06 µg/mL
MIC (S. pyogenes GC 4563; Water pre-incubation): < 0.06 µg/mL
MIC (S. aureus GC 6467; Mouse Serum pre-incubation): 4 µg/mL (≈ 5.24 µM)
MIC (S. aureus GC 6467; Water pre-incubation): 4 µg/mL (≈ 5.24 µM)
MIC (S. aureus GC 6335; Mouse Serum pre-incubation): 1 µg/mL (≈ 1.31 µM)
MIC (S. aureus GC 6335; Water pre-incubation): 1 µg/mL (≈ 1.31 µM)
MIC (E. coli GC 3226; Mouse Serum pre-incubation): 0.5 µg/mL (≈ 0.655 µM)
MIC (E. coli GC 3226; Water pre-incubation): > 64 µg/mL
MIC (E. coli GC 2203; Mouse Serum pre-incubation): 0.25 µg/mL (≈ 0.327 µM)
MIC (E. coli GC 2203; Water pre-incubation): 16 µg/mL (≈ 20.9 µM)
MIC (E. coli GC 4559; Mouse Serum pre-incubation): 0.5 µg/mL (≈ 0.655 µM)
MIC (E. coli GC 4559; Water pre-incubation): 32 µg/mL (≈ 41.9 µM)
MIC (S. agalactiae GC 4564; [1]): <0.06 UG/ML
MIC (S. agalactiae GC 4564; [2]): < 0.06 µg/mL
MIC (E. coli GC 2233; Mouse Serum pre-incubation): 0.25 µg/mL (≈ 0.327 µM)
MIC (E. coli GC 2233; Water pre-incubation): 8 µg/mL (≈ 10.5 µM)
MIC (E. coli GC 6465; Mouse Serum pre-incubation): 8 µg/mL (≈ 10.5 µM)
MIC (E. coli GC 6465; Water pre-incubation): > 64 µg/mL
MIC (E. coli GC 1073; Mouse Serum pre-incubation): 0.5 µg/mL (≈ 0.655 µM)
MIC (E. coli GC 1073; Water pre-incubation): 16 µg/mL (≈ 20.9 µM)
MIC (S. typhimurium GC 2172; Mouse Serum pre-incubation): 4 µg/mL (≈ 5.24 µM)
MIC (S. typhimurium GC 2172; Water pre-incubation): > 64 µg/mL
MIC (S. aureus GC 1079; Mouse Serum pre-incubation): 2 µg/mL (≈ 2.62 µM)
MIC (S. aureus GC 1079; Water pre-incubation): 4 µg/mL (≈ 5.24 µM)
MIC (E. faecium GC 4556; Mouse Serum pre-incubation): 0.25 µg/mL (≈ 0.327 µM)
MIC (E. faecium GC 4556; Water pre-incubation): 0.5 µg/mL (≈ 0.655 µM)
MIC (E. coli GC 2270; Mouse Serum pre-incubation): 0.5 µg/mL (≈ 0.655 µM)
MIC (E. coli GC 2270; Water pre-incubation): 8 µg/mL (≈ 10.5 µM)
MIC (E. coli GC 4560; Mouse Serum pre-incubation): 0.12 µg/mL (≈ 0.157 µM)
MIC (E. coli GC 4560; Water pre-incubation): 0.12 µg/mL (≈ 0.157 µM)
MIC (E. coli GC 2235; Mouse Serum pre-incubation): 0.25 µg/mL (≈ 0.327 µM)
MIC (E. coli GC 2235; Water pre-incubation): 4 µg/mL (≈ 5.24 µM)
MIC (E. coli GC 2271; Mouse Serum pre-incubation): 0.25 µg/mL (≈ 0.327 µM)
MIC (E. coli GC 2271; Water pre-incubation): 4 µg/mL (≈ 5.24 µM)
MIC (S. aureus GC 6466; Mouse Serum pre-incubation): 0.25 µg/mL (≈ 0.327 µM)
MIC (S. aureus GC 6466; Water pre-incubation): 0.25 µg/mL (≈ 0.327 µM)
MIC (E. coli GC 2234; Mouse Serum pre-incubation): 0.5 µg/mL (≈ 0.655 µM)
MIC (E. coli GC 2234; Water pre-incubation): 16 µg/mL (≈ 20.9 µM)

CCCCN(CC(=O)Nc1cc(N(C)C)c2c(c1O)C(=O)C1=C(O)[C@]3(O)C(=O)C(C(N)=O)=C(O)[C@@H](N(C)C)[C@@H]3C[C@@H]1C2)C(=O)OCOC(=O)Cc1ccccc1 [Example 12, ({[(2-{[(5aR,6aS,7S,10aS)-9-(aminocarbonyl)-4,7-bis(dimethylamino)-1,8,10a,11-tetrahydroxy-10,12-dioxo-5,5a,6,6a,7,10,10a,12-octahydrotetracen-2-yl]amino}-2-oxoethyl)(butyl)amino]carbonyl}oxy)methyl phenylacetate]
MIC (S. aureus GC 6469; Mouse Serum pre-incubation): 4 µg/mL (≈ 5.14 µM)
MIC (S. aureus GC 6469; Water pre-incubation): 16 µg/mL (≈ 20.6 µM)
MIC (S. pyogenes GC 4563; Mouse Serum pre-incubation): 0.12 µg/mL (≈ 0.154 µM)
MIC (S. pyogenes GC 4563; Water pre-incubation): 0.25 µg/mL (≈ 0.321 µM)
MIC (S. aureus GC 6467; Mouse Serum pre-incubation): 4 µg/mL (≈ 5.14 µM)
MIC (S. aureus GC 6467; Water pre-incubation): 16 µg/mL (≈ 20.6 µM)
MIC (S. aureus GC 6335; Mouse Serum pre-incubation): 1 µg/mL (≈ 1.29 µM)
MIC (S. aureus GC 6335; Water pre-incubation): 2 µg/mL (≈ 2.57 µM)
MIC (E. coli GC 3226; Mouse Serum pre-incubation): 2 µg/mL (≈ 2.57 µM)
MIC (E. coli GC 3226; Water pre-incubation): 64 µg/mL (≈ 82.3 µM)
MIC (E. coli GC 2203; Mouse Serum pre-incubation): 1 µg/mL (≈ 1.29 µM)
MIC (E. coli GC 2203; Water pre-incubation): 32 µg/mL (≈ 41.1 µM)
MIC (E. coli GC 4559; Mouse Serum pre-incubation): 1 µg/mL (≈ 1.29 µM)
MIC (E. coli GC 4559; Water pre-incubation): 64 µg/mL (≈ 82.3 µM)
MIC (S. agalactiae GC 4564; [1]): 0.25 UG/ML
MIC (S. agalactiae GC 4564; [2]): 0.25 µg/mL (≈ 0.321 µM)
MIC (E. coli GC 2233; Mouse Serum pre-incubation): 1 µg/mL (≈ 1.29 µM)
MIC (E. coli GC 2233; Water pre-incubation): 32 µg/mL (≈ 41.1 µM)
MIC (E. coli GC 6465; Mouse Serum pre-incubation): 8 µg/mL (≈ 10.3 µM)
MIC (E. coli GC 6465; Water pre-incubation): > 64 µg/mL
MIC (E. coli GC 1073; Mouse Serum pre-incubation): 1 µg/mL (≈ 1.29 µM)
MIC (E. coli GC 1073; Water pre-incubation): 64 µg/mL (≈ 82.3 µM)
MIC (S. typhimurium GC 2172; Mouse Serum pre-incubation): 4 µg/mL (≈ 5.14 µM)
MIC (S. typhimurium GC 2172; Water pre-incubation): > 64 µg/mL
MIC (S. aureus GC 1079; Mouse Serum pre-incubation): 2 µg/mL (≈ 2.57 µM)
MIC (S. aureus GC 1079; Water pre-incubation): 8 µg/mL (≈ 10.3 µM)
MIC (E. faecium GC 4556; Mouse Serum pre-incubation): 1 µg/mL (≈ 1.29 µM)
MIC (E. faecium GC 4556; Water pre-incubation): 4 µg/mL (≈ 5.14 µM)
MIC (E. coli GC 2270; Mouse Serum pre-incubation): 0.5 µg/mL (≈ 0.643 µM)
MIC (E. coli GC 2270; Water pre-incubation): 32 µg/mL (≈ 41.1 µM)
MIC (E. coli GC 4560; Mouse Serum pre-incubation): 0.25 µg/mL (≈ 0.321 µM)
MIC (E. coli GC 4560; Water pre-incubation): 1 µg/mL (≈ 1.29 µM)
MIC (E. coli GC 2235; Mouse Serum pre-incubation): 1 µg/mL (≈ 1.29 µM)
MIC (E. coli GC 2235; Water pre-incubation): 16 µg/mL (≈ 20.6 µM)
MIC (E. coli GC 2271; Mouse Serum pre-incubation): 0.5 µg/mL (≈ 0.643 µM)
MIC (E. coli GC 2271; Water pre-incubation): 16 µg/mL (≈ 20.6 µM)
MIC (S. aureus GC 6466; Mouse Serum pre-incubation): 0.5 µg/mL (≈ 0.643 µM)
MIC (S. aureus GC 6466; Water pre-incubation): 1 µg/mL (≈ 1.29 µM)
MIC (E. coli GC 2234; Mouse Serum pre-incubation): 1 µg/mL (≈ 1.29 µM)
MIC (E. coli GC 2234; Water pre-incubation): 16 µg/mL (≈ 20.6 µM)

— patent US20070049564A1 (Wyeth, priority 2005, published 2007)
